We go through 2 molecules from US20080032961A1, “Therapy employing LXRalpha modolators” (priority 2001, published 2008).

The structures appear in SMILES notation.

What all share (type): cell-based
For assay [1], the system named is LXRα mRNA in 3T3-L1 adipocytes. Put plainly: Northern blot analysis of LXRα mRNA in 3T3-L1 adipocytes. The settings on record: for LXRα mRNA (Northern blot of total RNA): differentiating 3T3-L1 cells, 22-R 5 μM, Darglitazone 1 μM, alone or in combination, 24 hours, FIG. 2. As to the method:
We performed Northern blot analysis on total RNA from 3T3-L1 adipocytes treated with increasing doses of a PPARγ agonist. Adipocytes treated over a 24 hrs period with […] of Darglitazone. 20 μg total RNA was subjected to Northern blotting and probed with a ^32P-labeled LXRα cDNA probe. The signal was obtained by scanning the autoradiogram and normalised for 18S RNA expression. […] These concentrations are in agreement with concentrations required for activation of PPARγ in reporter assays (Lehmann et al. 1995).
(§1) 3T3-L1 cells committed to adipocyte differentiation were treated with either Darglitazone, the LXRα agonist 22-R-hydroxy cholesterol, or both. 22-R-hydroxy cholesterol (22-R) is a naturally occurring agonist for LXRα (Janowski et al. 1996). […] Therefore, treatment of 3T3-L1 pre-adipocytes with either a PPARγ agonist or an LXRα agonist leads to fat accumulation and increased expression of LXRα.
(§2) The 3T3-L1 cell line (ATCC) was maintained in DMEM supplemented with 10% fetal calf serum, 2 mM L-glutamine and penicillin/streptomycin at 37° C. Cells were grown to confluence and exposed to adipogenic reagents for 3 days, followed by culturing for 3 more days in medium containing insulin only as described elsewhere (Lin and Lane, 1992). Insulin was used at a concentration of 1 μg/ml, dexamethasone at 1 μM and isobutylmethylxanthine at 0.5 mM.
(§3) Total RNA from differentiated 3T3-L1 adipocytes or adipose tissue were extracted by the Trizol (Life Technologies, Inc.) method as recommended by the manufacturer. Northern blot analysis of RNA was performed as described earlier (Sorensen et al., 1994). 20 μg of total RNA was analyzed for LXRα and ribosomal protein 18S mRNA.

In assay [2] the test system is 3T3-L1 cells. Put plainly: Oil Red O staining of lipid droplet accumulation / adipocyte differentiation of 3T3-L1 cells. The settings on record: for lipid droplets (Oil Red-O staining): 3T3-L1 cells committed to adipocyte differentiation. The protocol: as §1, §2
Light microscopy and Oil Red O staining were used to monitor the characteristic cell rounding and lipid droplet accumulation in these cells during differentiation. Images were taken using a microscope (Leica DMIL) and a dual-colour charge coupled device camera (Leica MPS 60).

Assay [3] relates to LXRα mRNA in human adipocytes. Put plainly: Northern blot analysis of LXRα mRNA in human adipocytes. The settings on record: 1 μM Darglitazone, 5 μM 22-(R)-hydroxy cholesterol or both, 48 hrs, FIG. 3. The protocol: Human adipocytes were obtained from breast reduction surgery. Pieces of adipose tissue (5-600 mg) were prepared under sterile conditions and used for incubations in plastic tubes essentially as described (Ottosson et al., 1994). PolyA+ RNA was isolated and subjected to Northern blot analysis (FIG. 3).
as §3

Turning to `CC(C)CC[C@@H](O)[C@@H](C)[C@H]1CC[C@H]2[C@@H]3CC=C4C[C@@H](O)CC[C@]4(C)[C@H]3CC[C@]12C` [22-R-hydroxy cholesterol], the “LXRα mRNA (Northern blot of total RNA)” value in assay [1] is “increase”. Further, the “lipid droplets (Oil Red-O staining)” value in assay [2] is given as “gradually larger lipid droplets”. Further, the “adipocyte differentiation of 3T3-L1 pre-adipocytes” value in assay [2] (3T3-L1 pre-adipocytes) is reported as “enhances adipocyte differentiation”. Further, the “expression levels of LXRα mRNA (Northern blot of PolyA+ RNA)” value in assay [3] is on record as “increased expression levels”.
Take `Cc1oc(-c2ccccc2)nc1CCC(=O)c1ccc(CC2SC(=O)NC2=O)cc1` (centres unmarked) [Darglitazone]: the “induction of LXRa mRNA” value in assay [1] (3T3-L1 adipocytes, 24 hrs, 0.01, 0.1, and 1 mM, normalised for 18S RNA, FIG. 1) is reported as “approximately 5 fold”. Also, in assay [1], the “LXRα mRNA (Northern blot of total RNA)” value was “increase”. Moreover, the “lipid droplets (Oil Red-O staining)” value in assay [2] is “gradually larger lipid droplets”. Besides, the “expression levels of LXRα mRNA (Northern blot of PolyA+ RNA)” value in assay [3] was “increased expression levels”.
